From patent US20190389830A1, “NRF2 ACTIVATOR” (BIOGEN MA INC., priority 2017, published 2019)

Tests used:
Type in all cases: cell-based
[1] = test system: Nrf2 target genes; test: Gene expression (RT-PCR) in cultured human astrocytes; conditions: 20 hours, increasing concentrations
Description: (§1) Human astrocytes from ScienCell (cat #1820) were grown in astrocyte medium per supplier's instructions. Cells cultured for no more than two passages were plated in 96-well plates at 40,000 cells per well for gene transcription experiments and 20,000 cell per well for glutathione and cytoprotection assays.
Primary cultures of human spinal cord astrocytes were treated with compound 3-Ent1 for 20 hours. The cells were then rinsed in PBS, lysed, and processed for RNA using Ambion Taqman™ Cells-to-CT kit. The resulting cDNA was stored at −20° C. until analysis by real-time polymerase chain reaction (RT-PCR). The cDNA mixture from Cells-to-CT was diluted 5x before loading into PCR. This yields results similar to using 6 ng of purified cDNA. RT-PCR was performed on Life Technologies QuantStudio platform using OpenArray technique according to manufacturer's protocol using the following Taqman primers: […]
The comparative CT method was used to calculate fold changes using ThermoFisher Cloud software for PCR analysis. Samples were compared to vehicle control.

[2] = test system: human astrocytes; test: Glutathione assay (GSH-Glo) in human astrocytes; conditions: 20-hr exposure (FIG. 2)
Description: as §1
Intracellular glutathione was measured after a 20-hr exposure to test compound 3-Ent1 by a two-step process. First, cells were lysed and luciferin quantitatively generated from substrate, catalyzed by glutathione-S-transferase in the presence of analyte glutathione. Then luciferin was assayed using stabilized luciferase to produce a luminescent signal proportional to the concentration of glutathione (Promega GSH-Glo, cat #V6912).

[3] = test system: human astrocytes; test: Cytoprotection of astrocytes against sodium arsenite; conditions: compound 20 hrs before 25 μM sodium arsenite, further 22 hrs (FIG. 3)
Description: as §1
Astrocytes were treated for 20 hrs as above, then the medium was removed and replaced with serum- and supplement-free growth medium with and without 25 μM sodium arsenite. After 22 hrs., cells were washed with PBS, fixed with 4% paraformaldehyde/4% sucrose in PBS, stained with 4′,6-Diamidino-2-phenylindole dihydrochloride (DAPI) and counted by quantitative fluorescence microscopy.

CC1CCC2(C)C=C(C#N)C(=O)C(C)(C)C2O1 (single isomer, unassigned; ent1) [Compound 3-Ent1]
transcription of GCLC ([1]; compared to vehicle control (FIG. 1A)): induces transcription
transcription of HMOX1 ([1]; compared to vehicle control (FIG. 1B)): induces transcription
transcription of OSGIN1 ([1]; compared to vehicle control (FIG. 1C)): induces transcription
transcription of NQO1 ([1]; compared to vehicle control (FIG. 1D)): induces transcription
intracellular glutathione [2]: increases
protection from oxidative stress-induced cell death [3]: protects cells
